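Dose response: 5 concentrations. Exposure: 48 h. Format: 96-well plates. Endpoint: linear interpolation; highest concentration if not reached. The concentration for full growth arrest is given as TGI.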
How the values were obtained:
Test in all cases: NCI anticancer screen, dose series, 48 h
[1] = system: NCI-H23 lung
[2] = system: TK-10 renal
[3] = system: SW-620 colon
[4] = system: HOP-62 NSCLC
[5] = system: MALME-3M melanoma
[6] = system: UO-31 renal
[7] = system: K-562 leukemia
[8] = system: MDA-MB-231 breast
[9] = system: RXF 393 renal
[10] = system: OVCAR-4 ovarian
[11] = system: CAKI-1 renal
[12] = system: SF-539 CNS

SMILES	TGI [1] [µM]	TGI [2] [µM]	TGI [3] [µM]	TGI [4] [µM]	TGI [5] [µM]	TGI [6] [µM]	TGI [7] [µM]	TGI [8] [µM]	TGI [9] [µM]	TGI [10] [µM]	TGI [11] [µM]	TGI [12] [µM]
O=S(=O)(c1ccc(Br)cc1)n1c2ccc(Br)cc2c2nc3ccccc3nc21	> 100	> 100	> 100	> 100	> 100	> 100	> 100	> 100	53	> 100	> 100	
CC1=NN(C(=O)CSc2nnc(SCC(=O)N3N=C(C)CC3(O)c3ccccc3)s2)C(O)(c2ccccc2)C1 (stereo unspecified)	> 100	> 100	> 100	> 100	> 100	> 100	> 100	> 100	75.1	> 100	> 100	
CC[C@@]1(O)C(=O)OCc2c1cc1n(c2=O)Cc2c-1nc1ccccc1c2/C=N\NC(=O)C(N)CC(C)C (stereo partly specified)	0.112	> 100	> 40.2	0.382	7.31	0.201	> 100	> 100	0.154	> 100	0.181	
Nc1nc(Cl)cc(NCC2(O)CC(CO)C2)n1 (stereo unspecified)	> 100	> 100	> 100	> 100	> 100	> 100	> 100	> 100	> 100	> 100	> 100	> 100
O=C1c2ccccc2C2CNC1(O)c1ccccc12 (stereo unspecified)	> 100	> 100	> 100	> 100	> 100	> 100	> 100	> 100	> 100	> 100	> 100	> 100
OCC1OC(c2scc3c(=S)nc[nH]c23)C(O)C1O (stereo unspecified)	92.6	> 100	> 93.1	> 100	> 72.9	> 100	> 100	> 69.2	> 100	38.1	63.3	57.6
O=C1c2c(F)c(F)c(F)c(F)c2SC2=NCCN12	10.4	22.4	6.29	32.6	12.8	22.5	> 22.5	22.2	8.89	8.91	6.67	30
O=C(Cn1c(=O)oc2ccc(C(=O)c3ccc(F)cc3)cc21)c1ccc([N+](=O)[O-])cc1	> 100	> 100	> 100	> 100	> 100	84.4	> 100	> 100	> 100	> 100	> 100	> 100
CC[n+]1cnc(N)c2c(-c3ccc(Cl)cc3)cn(-c3ccc(C)cc3)c21	35.4	31.6	30.5	30.5	25.5	21.5	20.7	31.7	18.2	15.6	30.6	28.5
CCCCNC1CCC2(SCCS2)c2[nH]c3ccccc3c21 (stereo unspecified)	> 100	45.1	> 82.6	> 100	33.8	> 89.4	55.1	> 62.6	> 64.3	> 100		31.6
CCOC(=O)c1ccc(N=NN(C)C(=O)C(C)N)cc1 (stereo unspecified)	> 100	> 100	> 100	> 100	> 100	> 100	> 100	> 100	> 100	> 100	> 100	> 100
O=C(Cc1ccccc1)NCCc1ccc(O)c(O)c1	> 100	> 100	> 100	> 100	> 100	> 100	39.8	> 100	> 100	28		> 100
CN(C)CCNc1ccc(C(=O)NCCCN(C)CCCNC(=O)c2ccc(NCCN(C)C)c3c(=O)c4ccccc4[nH]c23)c2[nH]c3ccccc3c(=O)c12	2.78	6.94	2.36	1.5	0.844	15.8	5.27	0.388	0.912	0.211	31.8	< 0.0309
C=CCNC(=S)Nc1sc2c(c1C(=O)OCC)CC(C)CC2 (stereo unspecified)	> 100	63.7	> 100	65.1	45.8	56.3	> 100	57	83.9	> 100	> 100	
CCOc1cc2c(cc1O)/C(=N\N)C[C@@H]1[C@@H]2CC[C@]2(C)[C@@H](O)CC[C@@H]12	92.1	> 68	17.8	> 100	20.8	> 100	> 100	> 42.9	36.2	> 100	40.6	38
O=C(CSCC(=O)N/N=C/c1cc(I)cc(I)c1O)N/N=C/c1cc(I)cc(I)c1O	25.3	31.6	> 100	33.4	44.3	44.5	37.7	25.1	24.5	> 100	> 100	38.1
COc1ccc2oc(=N)c(C(=O)Nc3cccc4ccccc34)cc2c1	> 100	51.1	> 100	26.9	49.8	30.5	> 100	79.1	20	40.3	> 100	> 100
COc1cc(/C=C/C(=O)OCC23CC[C@@]4(C(=O)O)CCC(C)[C@H](C)C4C2=CCC2[C@@]4(C)CC[C@H](O)C(C)(C)C4CC[C@]23C)ccc1O (stereo partly specified)	15.6	8.9	> 100	28.6	27.5		> 100	> 100	47.4	46.9	> 100	31.4
Clc1ccc2c(SCC3CO3)c3ccccc3nc2c1 (stereo unspecified)	> 100	3.35	5.24	17.6	6.39	3.34	4.43	6.64	8.08	21.1	2.88	7.11

— PubChem BioAssay (NCI)
